Measured values reported in patent US10618918B2, “Substituted boronic acids as antimicrobials” (priority 2015, dated 2020).
pKi: −log10 of the molar value. Where two headings read alike, the source gives them in different places.

Legend:
[1] = test system: KP1004 KPC-2; assay: Biapenem potentiation (MPC@1), strain KP1004 KPC-2; type: cell-based; settings: minimum BLI concentration inhibiting growth with biapenem 1 μg/mL; tested up to 40 μg/mL
Method: (§1) Biapenem was present in the test medium at 1 μg/mL. […] Table 3 summarizes the BLI potency of biapenem potentiation (MPC@1) for two strains overexpressing class A (KPC) and class D (OXA-48) carbapenemases. Biapenem MIC for each strain is also shown.

[2] = test system: KP1086 OXA-48; assay: Biapenem potentiation (MPC@1), strain KP1086 OXA-48; type: cell-based; settings: minimum BLI concentration inhibiting growth with biapenem 1 μg/mL; tested up to 40 μg/mL
Method: as §1

[3] = target: purified class A, C and D enzymes (β-lactamases) (Enterobacter cloacae, UniProt P05364); assay: biochemical; type: biochemical
[4] = target: purified class A, C and D enzymes (β-lactamases) (Escherichia coli, UniProt Q9L5C7); assay: biochemical; type: biochemical; settings: purified CTX-M-14; nitrocefin (NCF) as reporter substrate
[5] = target: purified class A, C and D enzymes (β-lactamases) (Klebsiella pneumoniae, UniProt Q6XEC0); assay: biochemical; type: biochemical; settings: purified OXA-48; nitrocefin (NCF) as reporter substrate
[6] = target: purified class A, C and D enzymes (β-lactamases) (Klebsiella pneumoniae, UniProt Q9F663); assay: biochemical; type: biochemical; settings: purified KPC-2; nitrocefin (NCF) as reporter substrate
[7] = target: T1, purified class A, C and D enzymes (β-lactamases) (UniProt P0AD64, L31Q/G234S/E235K, species not given); assay: biochemical; type: biochemical
T1 construct: Ki (SHV-12, NCF), uM; other: purified SHV-12; nitrocefin (NCF) as reporter substrate
T1 sequence (P0AD64 1-286 L31Q/G234S/E235K): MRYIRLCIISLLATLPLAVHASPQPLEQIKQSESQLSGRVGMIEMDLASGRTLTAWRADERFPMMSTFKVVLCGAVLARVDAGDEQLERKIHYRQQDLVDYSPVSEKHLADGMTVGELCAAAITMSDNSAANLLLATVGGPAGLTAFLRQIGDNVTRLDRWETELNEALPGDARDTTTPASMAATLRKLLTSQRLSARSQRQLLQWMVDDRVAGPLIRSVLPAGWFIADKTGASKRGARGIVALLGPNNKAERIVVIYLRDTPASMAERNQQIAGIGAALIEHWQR

[8] = test system: PAM1032/KPC-2; assay: Biapenem potentiation MPC64 in PAM1032/KPC-2 (efflux proficient, overexpresses MexAB-OprM); type: cell-based, Pseudomonas aeruginosa; settings: BLI concentration decreasing biapenem MIC 64-fold, from 32 μg/ml to 0.5 μg/ml; efflux proficient strain
Method: (§2) Efflux of BLIs from Pseudomonas aeruginosa by the MexAB-OprM efflux pump was also evaluated. The plasmid expressing the gene encoding KPC-2 was introduced into two strains of P. aeruginosa, PAM1032 and PAM 1154 that overexpressed or lacked MexAB-OprM, respectively. […] Potency of BLIs to potentiate biapenem in these strains was determined.

[9] = test system: PAM1154/KPC-2; assay: Biapenem potentiation MPC64 in PAM1154/KPC-2 (efflux deficient, lacks MexAB-OprM); type: cell-based, Pseudomonas aeruginosa; settings: BLI concentration decreasing biapenem MIC 64-fold, from 32 μg/ml to 0.5 μg/ml; efflux deficient strain
Method: as §2

[10] = test system: ECL1002; assay: Aztreonam potentiation (MPC@4), strain ECL1002; settings: minimum BLI concentration inhibiting growth with aztreonam 4 μg/mL; tested up to 40 μg/mL
[11] = test system: ec308 SHV-5; assay: Aztreonam potentiation (MPC@4), strain ec308 SHV-5; settings: minimum BLI concentration inhibiting growth with aztreonam 4 μg/mL; tested up to 40 μg/mL
[12] = test system: ec302 TEM-10; assay: Aztreonam potentiation (MPC@4), strain ec302 TEM-10; settings: minimum BLI concentration inhibiting growth with aztreonam 4 μg/mL; tested up to 40 μg/mL
[13] = test system: KP1004 KPC-2; assay: Aztreonam potentiation (MPC@4), strain KP1004 KPC-2; settings: minimum BLI concentration inhibiting growth with aztreonam 4 μg/mL; tested up to 40 μg/mL
[14] = test system: EC1010 CMY-6; assay: Aztreonam potentiation (MPC@4), strain EC1010 CMY-6; settings: minimum BLI concentration inhibiting growth with aztreonam 4 μg/mL; tested up to 40 μg/mL
[15] = test system: KP1010 SHV-12; assay: Aztreonam potentiation (MPC@4), strain KP1010 SHV-12; settings: minimum BLI concentration inhibiting growth with aztreonam 4 μg/mL; tested up to 40 μg/mL
[16] = test system: KP1009 CTX-M-15; assay: Aztreonam potentiation (MPC@4), strain KP1009 CTX-M-15; settings: minimum BLI concentration inhibiting growth with aztreonam 4 μg/mL; tested up to 40 μg/mL
[17] = test system: KP1005 CTX-M-14; assay: Tigemonam potentiation (MPC@4), strain KP1005 CTX-M-14; settings: minimum BLI concentration inhibiting growth with tigemonam 4 μg/mL; tested up to 40 μg/mL
[18] = test system: AB1053 OXA-72; assay: Meropenem potentiation (MPC@8), strain AB1053 OXA-72; type: cell-based, Acinetobacter baumannii; settings: minimum BLI concentration inhibiting growth with meropenem 8 μg/mL; tested up to 20 μg/mL
[19] = test system: AB1054 OXA-23; assay: Meropenem potentiation (MPC@8), strain AB1054 OXA-23; type: cell-based, Acinetobacter baumannii; settings: minimum BLI concentration inhibiting growth with meropenem 8 μg/mL; tested up to 20 μg/mL
[20] = target: T2, purified class A, C and D enzymes (β-lactamases) (Acinetobacter baumannii, UniProt Q9L4P2); assay: biochemical; type: biochemical; settings: purified OXA-23; nitrocefin (NCF) as reporter substrate
T2 construct: rows headed: Ki (OXA-23, NCF), uM; other: purified OXA-23; nitrocefin (NCF) as reporter substrate

[21] = target: T3, purified class A, C and D enzymes (β-lactamases) (Pseudomonas aeruginosa, UniProt P24735); assay: biochemical; type: biochemical
T3 construct: rows headed: Ki (Pa-AmpC, NCF), uM; other: purified Pa-AmpC; nitrocefin (NCF) as reporter substrate

[22] = purified P99, nitrocefin (NCF) as reporter substrate
[23] = purified SHV-12; nitrocefin (NCF) as reporter substrate; read-out: Ki (SHV-12, NCF)

Chain of purified class A, C and D enzymes (β-lactamases) (Escherichia coli, UniProt Q9L5C7) (Q9L5C7 entry or part of it): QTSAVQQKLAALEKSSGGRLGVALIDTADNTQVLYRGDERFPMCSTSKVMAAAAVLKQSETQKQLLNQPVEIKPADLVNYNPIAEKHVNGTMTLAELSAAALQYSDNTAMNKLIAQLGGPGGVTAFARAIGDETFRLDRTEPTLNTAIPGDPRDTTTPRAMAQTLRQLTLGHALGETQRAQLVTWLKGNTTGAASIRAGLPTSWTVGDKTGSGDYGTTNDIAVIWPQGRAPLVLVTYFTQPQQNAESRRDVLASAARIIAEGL
Chain of purified class A, C and D enzymes (β-lactamases) (Enterobacter cloacae, UniProt P05364) (P05364 21-381): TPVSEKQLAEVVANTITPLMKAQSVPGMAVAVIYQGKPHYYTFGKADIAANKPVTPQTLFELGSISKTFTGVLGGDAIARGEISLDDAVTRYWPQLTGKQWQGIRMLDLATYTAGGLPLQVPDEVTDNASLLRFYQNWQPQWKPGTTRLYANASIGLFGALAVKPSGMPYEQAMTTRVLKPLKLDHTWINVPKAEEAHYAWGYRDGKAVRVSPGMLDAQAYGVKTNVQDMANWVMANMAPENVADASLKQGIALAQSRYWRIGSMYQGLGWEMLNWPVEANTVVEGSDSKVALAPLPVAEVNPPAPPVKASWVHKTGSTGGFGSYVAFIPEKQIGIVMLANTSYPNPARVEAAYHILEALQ
T2 sequence (Q9L4P2 whole entry): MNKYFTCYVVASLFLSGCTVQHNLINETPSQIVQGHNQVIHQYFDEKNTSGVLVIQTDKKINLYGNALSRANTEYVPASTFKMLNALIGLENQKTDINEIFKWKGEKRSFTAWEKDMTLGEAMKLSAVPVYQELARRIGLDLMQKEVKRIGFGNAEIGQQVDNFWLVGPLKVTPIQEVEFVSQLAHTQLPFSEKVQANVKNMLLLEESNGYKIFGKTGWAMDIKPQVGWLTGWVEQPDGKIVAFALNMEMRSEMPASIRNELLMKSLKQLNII
T3 sequence (P24735 whole entry): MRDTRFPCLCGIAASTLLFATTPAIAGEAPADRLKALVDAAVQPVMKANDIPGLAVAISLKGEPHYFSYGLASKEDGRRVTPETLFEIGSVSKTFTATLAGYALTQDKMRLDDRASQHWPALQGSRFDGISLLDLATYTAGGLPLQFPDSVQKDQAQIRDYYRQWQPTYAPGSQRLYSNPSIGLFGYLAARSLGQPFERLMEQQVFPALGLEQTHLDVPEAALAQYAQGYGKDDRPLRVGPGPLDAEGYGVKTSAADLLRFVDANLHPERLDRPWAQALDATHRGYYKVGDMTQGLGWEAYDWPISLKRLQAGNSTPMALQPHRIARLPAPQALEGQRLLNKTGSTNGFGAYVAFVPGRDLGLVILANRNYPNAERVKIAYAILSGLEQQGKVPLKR

Compound	BPM MPC1 KP1004 KPC-2 [1]	BPM MPC1 OXA-48 KP1086 [2]	Ki (P99, NCF), uM [3, 22]	Ki (CTX-M-14, NCF), uM [4]	Ki (OXA-48, NCF), uM [5]	Ki (KPC-2, NCF), uM [6]	pKi [7, 23]	PAM1032/KPC-2 Biapenem MPC64 [8]	PAM1154/KPC-2 Biapenem MPC64 [9]	AZT MPC4 ECL1002 [10]	AZT MPC4 SHV-5 ec308 [11]	AZT MPC4 TEM-10 ec302 [12]	AZT MPC4 KPC-2 KP1004 [13]	AZT MPC4 CMY-6 EC1010 [14]	AZT MPC4 SHV-12 KP1010 [15]	AZT MPC4 CTX-M-15 KP1009 [16]	TIG MPC4 CTX-M-14 KP1005 [17]	MPM MPC8 AB1053 OXA-72 [18]	MPM MPC8 AB1054 OXA-23 [19]	pKi [20]	other results
O=C(O)c1cccc2c1OB(O)CN2S(=O)(=O)Cc1ccccc1 [Compound 4, 4-(BENZYLSULFONYL)-2-HYDROXY-3,4-DIHYDRO-2H-BENZO[E][1,4,2]OXAZABORININE-8-CARBOXYLIC ACID]	X (X = MPC@1 ≤ 5 μg/mL)	Z (Z = MPC@1 > 20 μg/mL)	X (X = Ki ≤ 0.1 μM)	X (X = Ki ≤ 0.1 μM)	X (X = Ki ≤ 0.1 μM)	X (X = Ki ≤ 0.1 μM)	> 7.00	>80	5	Z (Z = MPC@4 > 20 μg/mL)	Z (Z = MPC@4 > 20 μg/mL)	Z (Z = MPC@4 > 20 μg/mL)	Z (Z = MPC@4 > 20 μg/mL)	Z (Z = MPC@4 > 20 μg/mL)	Z (Z = MPC@4 > 20 μg/mL)	Z (Z = MPC@4 > 20 μg/mL)	Z (Z = MPC@4 > 20 μg/mL)				
O=C(O)c1cccc2c1OB(O)CC2 [Compound 5, 2-HYDROXY-3,4-DIHYDRO-1,2-BENZOXABORININE-8-CARBOXYLIC ACID]	X (X = MPC@1 ≤ 5 μg/mL)	X (X = MPC@1 ≤ 5 μg/mL)	X (X = Ki ≤ 0.1 μM)	X (X = Ki ≤ 0.1 μM)	X (X = Ki ≤ 0.1 μM)	X (X = Ki ≤ 0.1 μM)	> 7.00	20	0.3	Z (Z = MPC@4 > 20 μg/mL)	Z (Z = MPC@4 > 20 μg/mL)	Z (Z = MPC@4 > 20 μg/mL)	X (X = MPC@4 ≤ 5 μg/mL)	Y (Y = 5 μg/mL < MPC@4 ≤ 20 μg/mL)	Y (Y = 5 μg/mL < MPC@4 ≤ 20 μg/mL)	Y (Y = 5 μg/mL < MPC@4 ≤ 20 μg/mL)	Z (Z = MPC@4 > 20 μg/mL)	Z (Z = MPC@1 > 20 μg/mL)	Y (Y = 5 μg/mL < MPC@1 ≤ 20 μg/mL)	6.00 to 7.00	
O=C([O-])c1c(OC(F)F)ccc2c1O[B-](O)(O)CC2.[Na+].[Na+] [Compound 56, Disodium; 8-(difluoromethoxy)-4,4-dihydroxy-5-oxa-4-boranuidabicyclo[4.4.0]deca-1(6),7,9-triene-7-carboxylate]	X (X = MPC@1 ≤ 5 μg/mL)	X (X = MPC@1 ≤ 5 μg/mL)		X (X = Ki ≤ 0.1 μM)	X (X = Ki ≤ 0.1 μM)	X (X = Ki ≤ 0.1 μM)				X (X = MPC@4 ≤ 5 μg/mL)	X (X = MPC@4 ≤ 5 μg/mL)	X (X = MPC@4 ≤ 5 μg/mL)	X (X = MPC@4 ≤ 5 μg/mL)	X (X = MPC@4 ≤ 5 μg/mL)	X (X = MPC@4 ≤ 5 μg/mL)	X (X = MPC@4 ≤ 5 μg/mL)	X (X = MPC@4 ≤ 5 μg/mL)	X (X = MPC@1 ≤ 5 μg/mL)	X (X = MPC@1 ≤ 5 μg/mL)	> 7.00	Ki (P99, NCF), uM [3]: X (key: X = Ki ≤ 0.1 μM; Y = 0.1 μM < Ki ≤ 1 μM; Z = Ki > 1 μM); pKi [21]: > 7.00; pKi ([7]; read-out: Ki (SHV-12, NCF); purified SHV-12; nitrocefin (NCF) as reporter substrate): > 7.00
